Test results as given in patent US9533952B2, “N-prop-2-ynyl carboxamide derivatives and their use as TRPA1 antagonists” (Orion Corporation, priority 2012, dated 2017).

What follows are compounds tested against TRPA1 (Homo sapiens, UniProt O75762) (assay: Determination of TRPA1 activity in vitro (TRPA1 antagonism in vitro)). Settings: procedure of Wei et al., Anesthesiology 111 (2009) 147-154.
Assay type: cell-based

Sequence of TRPA1 (O75762 whole entry): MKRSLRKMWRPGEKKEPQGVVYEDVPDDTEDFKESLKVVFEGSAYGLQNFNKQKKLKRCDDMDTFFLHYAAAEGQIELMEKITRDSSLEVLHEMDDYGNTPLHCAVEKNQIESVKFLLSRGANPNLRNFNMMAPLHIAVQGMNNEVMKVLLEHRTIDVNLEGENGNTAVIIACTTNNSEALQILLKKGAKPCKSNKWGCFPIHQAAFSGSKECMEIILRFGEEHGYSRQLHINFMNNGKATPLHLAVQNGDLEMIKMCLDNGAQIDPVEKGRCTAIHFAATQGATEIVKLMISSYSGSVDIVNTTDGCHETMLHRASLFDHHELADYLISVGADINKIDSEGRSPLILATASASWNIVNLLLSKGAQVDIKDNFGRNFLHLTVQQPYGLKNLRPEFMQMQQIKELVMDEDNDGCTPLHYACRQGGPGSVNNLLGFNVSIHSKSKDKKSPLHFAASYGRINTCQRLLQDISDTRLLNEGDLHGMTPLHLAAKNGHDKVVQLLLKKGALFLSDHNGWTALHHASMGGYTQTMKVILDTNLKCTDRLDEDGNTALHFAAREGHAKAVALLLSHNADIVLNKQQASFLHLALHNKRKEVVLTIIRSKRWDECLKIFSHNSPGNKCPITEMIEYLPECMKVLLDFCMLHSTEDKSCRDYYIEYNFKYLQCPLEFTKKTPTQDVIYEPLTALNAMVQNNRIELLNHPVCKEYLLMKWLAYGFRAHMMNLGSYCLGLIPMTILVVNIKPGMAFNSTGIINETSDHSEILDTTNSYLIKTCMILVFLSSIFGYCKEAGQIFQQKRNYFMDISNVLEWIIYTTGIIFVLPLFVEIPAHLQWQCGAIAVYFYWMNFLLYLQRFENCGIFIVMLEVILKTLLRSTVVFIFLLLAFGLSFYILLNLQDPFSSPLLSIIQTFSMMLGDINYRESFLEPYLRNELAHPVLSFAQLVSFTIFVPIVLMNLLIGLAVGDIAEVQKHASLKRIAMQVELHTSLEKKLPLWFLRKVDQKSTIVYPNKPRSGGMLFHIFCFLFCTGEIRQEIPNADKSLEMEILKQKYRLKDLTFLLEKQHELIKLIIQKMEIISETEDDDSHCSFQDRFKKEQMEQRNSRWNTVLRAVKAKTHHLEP

Q: `C#CC(CC)(CC)NC(=O)c1cc(Br)ccc1NCCOC` [Example 43, 5-Bromo-(3-ethylpent-1-yn-3yl)-2-(2-methoxyethylamino)-benzamide] was tested. Which IC50 did it give?
A: Its IC50 is 1000 nM.

Q: For `C#CC(C)(C)NC(=O)c1ccncc1Nc1ccc(Cl)cc1` [Example 134, 3-((4-Chlorophenyl)amino)-N-(2-methylbut-3-yn-2-yl)isonicotinamide], which IC50 is on record?
A: Its IC50 is 4300 nM.

Q: How did the IC50 turn out when `C#CC(C)(C)NC(=O)c1ccccc1NCC(F)(F)C(F)(F)F` [Example 19, N-(2-Methylbut-3-yn-2-yl)-2-(2,2,3,3,3-pentafluoropropylamino)-benzamide] was run?
A: The IC50 was 500 nM.

Q: `C#CC(CC)(CC)NC(=O)c1cc(I)ccc1NCCOC` [Example 47, N-(3-Ethylpent-1-yn-3-yl)-5-iodo-2-(2-methoxyethylamino)benzamide] was tested. Which IC50 did it give?
A: Its IC50 is 500 nM.

Q: How did the IC50 turn out when `C#CC(C)(C)NC(=O)c1cc(F)c(F)cc1NCC` [Example 65, 2-(Ethylamino)-4,5-difluoro-N-(2-methylbut-3-yn-2-yl)benzamide] was run?
A: Its IC50 is 4900 nM.

Q: With `C#CC(C)(C)NC(=O)c1cc(F)cnc1Nc1ccc(F)cc1` [Example 157, 5-Fluoro-2-(4-fluorophenylamino)-N-(2-methylbut-3-yn-2-yl)nicotinamide] as the compound, how does the IC50 read?
A: Its IC50 is 700 nM.

Q: For `C#CC(C)(C)NC(=O)c1cccc(F)c1NC1CCC1` [Example 21, 2-(Cyclobutylamino)-3-fluoro-N-(2-methylbut-3-yin-2-yl)benzamide], which IC50 is on record?
A: The IC50 was 5200 nM.

Q: For `C#CC(C)(C)NC(=O)c1cc(Cl)cnc1NC1CC(F)(F)C1` [Example 139, 5-Chloro-2-(3,3-difluorocyclobutylamino)-N-(2-methylbut-3-yn-2-yl)nicotinamide], which IC50 is on record?
A: The IC50 was 300 nM.

Q: `C#CC(C)(C)NC(=O)c1cccnc1Nc1cc(OC)ccc1Cl` [Example 188, 2-(2-Chloro-5-methoxyphenylamino)-N-(2-methylbut-3-yn-2-yl)nicotinamide] was tested. Which IC50 did it give?
A: The IC50 was 16700 nM.

Q: Which IC50 does the source give for `C#CC(C)(C)NC(=O)c1ccc(C(F)(F)F)nc1NCC` [Example 107, 2-(Ethylamino)-N-(2-methylbut-3-yn-2-yl)-6-(trifluoromethyl)-nicotinamide] here?
A: Its IC50 is 3700 nM.

Q: How did the IC50 turn out when `C#CC(C)(CC)NC(=O)c1cccnc1Nc1cc(OC)ccc1Cl` (stereo not drawn) [Example 189, 2-(2-Chloro-5-methoxyphenylamino)-N-(3-methylpent-1-yn-3-yl)nicotinamide] was run?
A: The IC50 was 3000 nM.

Q: With `C#CC(C)(C)NC(=O)c1cc(C(F)(F)F)cnc1NC1CC(F)(F)C1` [Example 141, 2-(3,3-Difluorocyclobutylamino)-N-(2-methylbut-3-yn-2-yl)-5-(trifluoromethyl)nicotinamide] as the compound, how does the IC50 read?
A: Its IC50 is 300 nM.

Q: For `C#CC(C)(C)NC(=O)c1cccc(F)c1NCCC(F)(F)F` [Example 15, 3-Fluoro-N-(2-methylbut-3-yn-2-yl)-2-(3,3,3-trifluoropropylamino)-benzamide], which IC50 is on record?
A: Its IC50 is 3000 nM.

Q: `C#CC(C)(C)NC(=O)c1ccc(C(F)(F)F)nc1NCC(C)C` [Example 105] was tested. Which IC50 did it give?
A: Its IC50 is 700 nM.

Q: Which IC50 does the source give for `C#CC(C)(C)NC(=O)c1cc(F)ccc1NC(C)C` [Example 92, 5-Fluoro-2-(isopropylamino)-N-(2-methylbut-3-yn-2-yl)benzamide] here?
A: Its IC50 is 12300 nM.

Q: `C#CC(C)(CC)NC(=O)c1cc(F)cnc1Nc1cccc(F)c1` (stereo not drawn) [Example 176, 5-Fluoro-2-(3-fluorophenylamino)-N-(3-methylpent-1-yn-3-yl)nicotinamide] was tested. Which IC50 did it give?
A: The IC50 was 300 nM.

Q: For `C#CC(C)(C)NC(=O)c1cc(OCC)ccc1NCCC` [Example 154, 5-Ethoxy-N-(2-methylbut-3-yn-2-yl)-2-(propylamino)benzamide], which IC50 is on record?
A: The IC50 was 7100 nM.

Q: With “5-Chloro-N-(2-methylbut-3-yn-yl)-2-(2,2,2-trifluoroethylamino)-nicotinamide [Example 34]” as the compound, how does the IC50 read?
A: Its IC50 is 500 nM.

Q: `C#CC(C)(C)NC(=O)c1cc(C(F)(F)F)ccc1NCC(F)F` [Example 10, 2-(2,2-Difluoroethylamino)-N-(2-methylbut-3yn-2-yl)-5-(trifluoromethyl)benzamide] was tested. Which IC50 did it give?
A: The IC50 was 1500 nM.

Q: For `C#CC(C)(C)NC(=O)c1ccc(C)cc1NCCC(F)(F)F` [Example 94, 4-Methyl-N-(2-methylbut-3-yn-2-yl)-2-(3,3,3-trifluoropropylamino)-benzamide], which IC50 is on record?
A: Its IC50 is 1800 nM.

Q: `C#CC(C)(C)NC(=O)c1cc(F)c(F)cc1NCC(C)(C)C` [Example 61, 4,5-Difluoro-N-(2-methylbut-3-yn-2-yl)-2-(neopentylamino) benzamide] was tested. Which IC50 did it give?
A: Its IC50 is 800 nM.

Q: For `C#CC(C)(C)NC(=O)c1cc(C(F)F)cnc1NC1CC(F)(F)C1` [Example 152, 2-(3,3-Difluorocyclobutylamino)-5-(difluoromethyl)-N-(2-methylbut-3-yn-2-yl)nicotinamide], which IC50 is on record?
A: The IC50 was 2400 nM.

Q: With `C#CC(C)(CC)NC(=O)c1cccnc1Nc1ccc(F)cc1F` (stereo not drawn) [Example 174, 2-(2,4-Difluorophenylamino)-N-(3-methylpent-1-yn-3-yl)nicotinamide] as the compound, how does the IC50 read?
A: The IC50 was 400 nM.

Q: `C#CC(C)(C)NC(=O)c1cc(F)cnc1NCCOc1ccc(F)cc1` [Example 145, 5-Fluoro-2-(2-(4-fluorophenoxy)ethylamino)-N-(2-methylbut-3-yn-2-yl)nicotinamide] was tested. Which IC50 did it give?
A: Its IC50 is 3300 nM.

Q: Which IC50 does the source give for `C#CC(C)(C)NC(=O)c1cccnc1Nc1ccc(F)cc1` [Example 131, 2-(4-Fluorophenylamino)-N-(2-methylbut-3-yn-2-yl)nicotinamide] here?
A: Its IC50 is 1400 nM.

Q: How did the IC50 turn out when `C#CC(C)(C)NC(=O)c1cc(OC)ccc1NCCCC(F)(F)F` [Example 96, 5-Methoxy-N-(2-methylbut-3-yn-2-yl)-2-(4,4,4-trifluorobutylamino)-benzamide] was run?
A: The IC50 was 3700 nM.

Q: For `C#CC(C)(C)NC(=O)c1cc(F)cnc1NCCC(C)C` [Example 52, 5-Fluoro-2-(isopentylamino)-N-(2-methylbut-3-yn-2-yl)nicotinamide], which IC50 is on record?
A: Its IC50 is 1200 nM.

Q: With `C#CC(C)(C)NC(=O)c1cccnc1NCCc1ccccc1` [Example 142, N-(2-Methylbut-3-yn-2-yl)-2-(phenethylamino)nicotinamide] as the compound, how does the IC50 read?
A: The IC50 was 5800 nM.

Q: Which IC50 does the source give for `C#CC(C)(C)NC(=O)c1cc2c(cc1NCC(C)C)OCCCO2` [Example 8, 8-(Isobutylamino)-N-(2-methylbut-3 yn-2-yl)-3,4-dihydro-2H-benzo[b][1,4]dioxepine-7-carboxamide] here?
A: Its IC50 is 13000 nM.

Q: For `C#CC(C)(C)NC(=O)c1cc(F)ccc1NCC(F)(F)F` [Example 22, 5-Fluoro-N-(2-methylbut-3-yn-2-yl)-2-(2,2,2-trifluoroethylamino)-benzamide], which IC50 is on record?
A: Its IC50 is 7200 nM.

Q: How did the IC50 turn out when `C#CC(C)(C)NC(=O)c1cc(F)c(F)cc1NCC(F)(F)F` [Example 38, 4,5-Difluoro-N-(2-methylbut-3-yn-2-yl)-2-(2,2,2-trifluoroethylamino)-benzamide] was run?
A: The IC50 was 2500 nM.

Q: For `C#CC(C)(C)NC(=O)c1cc(F)c(F)cc1NCCC(F)(F)F` [Example 66, 4,5-Difluoro-N-(2-methylbut-3-yn-2-yl)-2-(3,3,3-trifluoropropylamino)-benzamide], which IC50 is on record?
A: Its IC50 is 900 nM.

Q: `C#CC(C)(C)NC(=O)c1cc(C(F)(F)F)cnc1NCCC(F)F` [Example 58, 2-(3,3-Difluoropropylamino)-N-(2-methylbut-3-yn-2-yl)-5-(trifluoromethyl)nicotinamide] was tested. Which IC50 did it give?
A: The IC50 was 1100 nM.

Q: For `C#CC(C)(C)NC(=O)c1cccc2c(C)c(C)[nH]c12` [Example 118, 2,3-Dimethyl-N-(2-methylbut-3-yn-2-yl)-1H-indole-7-carboxamide], which IC50 is on record?
A: The IC50 was 12900 nM.

Q: How did the IC50 turn out when `C#CC(C)(C)NC(=O)c1ccc(C(F)(F)F)cc1NC` [Example 84, 2-(Methylamino)-N-(2-methylbut-3-yn-2-yl)-4-(trifluoromethyl)-benzamide] was run?
A: Its IC50 is 7500 nM.

Q: `C#CC(C)(C)NC(=O)c1cc(C)ccc1NCCC(F)(F)F` [Example 77, 5-Methyl-N-(2-methylbut-3-yn-2-yl)-2-(3,3,3-trifluoropropylamino)-benzamide] was tested. Which IC50 did it give?
A: Its IC50 is 900 nM.

Q: `C#CC(C)(C)NC(=O)c1cc(F)cnc1NCC(C)C` [Example 51, 5-Fluoro-2-(isobutylamino)-N-(2-methylbut-3-yn-2-yl)nicotinamide] was tested. Which IC50 did it give?
A: Its IC50 is 2200 nM.

Q: `C#CC(C)(CC)NC(=O)c1cc(F)cnc1Nc1ccccc1` (stereo not drawn) [Example 172, 5-Fluoro-N-(3-methylpent-1-yn-3-yl)-2-(phenylamino)nicotinamide] was tested. Which IC50 did it give?
A: Its IC50 is 300 nM.

Q: For `C#CC(C)(C)NC(=O)c1ccc(F)cc1NC1CC1` [Example 90, 2-(Cyclopropylamino)-4-fluoro-N-(2-methylbut-3-yn-2-yl)benzamide], which IC50 is on record?
A: Its IC50 is 4800 nM.

Q: For `C#CC(C)(CC)NC(=O)c1cccnc1Nc1ccc(F)cc1` (stereo not drawn) [Example 198, 2-(4-Fluorophenylamino)-N-(3-methylpent-1-yn-3-yl)nicotinamide], which IC50 is on record?
A: The IC50 was 200 nM.

Q: How did the IC50 turn out when `C#CC(C)(C)NC(=O)c1cccnc1Nc1ccc(Cl)c(OC)c1` [Example 196, 2-(4-Chloro-3-methoxyphenylamino)-N-(2-methylbut-3-yn-2-yl)nicotinamide] was run?
A: The IC50 was 3200 nM.

Q: With `C#CC(C)(C)NC(=O)c1cc(C(F)(F)F)cnc1NCCC(F)(F)F` [Example 2, N-(2-Methylbut-3-yn-2-yl)-5-(trifluoromethyl)-2-(3,3,3-trifluoropropylamino) nicotinamide] as the compound, how does the IC50 read?
A: The IC50 was 300 nM.

Q: Which IC50 does the source give for `C#CC(C)(C)NC(=O)c1cnc(C(F)(F)F)nc1NCCC(F)(F)F` [Example 11, N-(2-Methylbut-3-yn-2-yl)-2-(trifluoromethyl)-4-(3,3,3-trifluoropropylamino)pyrimidine-5-carboxamide] here?
A: Its IC50 is 3700 nM.

Q: With `C#CC(C)(C)NC(=O)c1cc(F)c(F)cc1NCCC` [Example 63, 4,5-Difluoro-N-(2-methylbut-3-yn-2-yl)-2-(propylamino)benzamide] as the compound, how does the IC50 read?
A: The IC50 was 3100 nM.

Q: `C#CC(C)(C)NC(=O)c1cccnc1NCCCc1ccccc1` [Example 143, N-(2-Methylbut-3-yn-2-yl)-2-(3-phenylpropylamino)nicotinamide] was tested. Which IC50 did it give?
A: The IC50 was 3800 nM.

Q: `C#CC(C)(C)NC(=O)c1cccnc1NCc1cccc(OC)c1` [Example 97, 2-(3-Methoxybenzylamino)-N-(2-methylbut-3-yn-2-yl)nicotinamide] was tested. Which IC50 did it give?
A: The IC50 was 14000 nM.

Q: For `C#CC(C)(C)NC(=O)c1cc(C(F)(F)F)ccc1NCCC(F)(F)F` [Example 12, N-(2-Methylbut-3-yn-2-yl)-5-(trifluoromethyl)-2-(3,33-trifluoropropylamino) benzamide], which IC50 is on record?
A: The IC50 was 500 nM.

Q: For `C#CC(C)(CC)NC(=O)c1cccnc1Nc1cc(F)cc(F)c1` (stereo not drawn) [Example 186, 2-(3,5-Difluorophenylamino)-N-(3-methylpent-1-yn-3-yl)nicotinamide], which IC50 is on record?
A: Its IC50 is 200 nM.
